PMC5120204, “Identification of an orally active small-molecule PTHR1 agonist for the treatment of hypoparathyroidism” (Nature Communications, 2016)
“Also recorded” adds a separate entry of the source.

How the values were obtained:
[1] = system: 12 class B GPCRs (CGRP, calcitonin, CRF1, CRF2α, GLP-1, GLP-2, glucagon, secretin, GHRH, PAC1, VPAC1 and VPAC2); assay: Selectivity assay (Cerep), agonist and antagonist cAMP assays; type: cell-based; conditions: at 1 or 10 μmol l^−1; activity defined as >25% of positive control
Protocol: Selectivity assays against class B GPCRs were performed by Cerep (France). Agonistic and antagonistic effects of PCO371 against a panel of 12 class B GPCRs (CGRP, calcitonin, CRF1, CRF2α, GLP-1, GLP-2, glucagon, secretin, GHRH, PAC1, VPAC1 and VPAC2) were examined at PCO371 concentrations of 1 and 10 μmol l^−1. The following cell lines were used; T47D (calcitonin), βTC6 (GLP-1), HT-29 (VPAC1, VPAC2), CHO (CGRP, CRF1, GLP-2, Glucagon, Secretin, GHRH and PAC1, recombinant), and HEK-293 (CRF-2, recombinant). Their antagonistic activity was measured in the presence of the control agonists shown in Supplementary Table 1. In agonist and antagonist experiments, intracellular cAMP levels were determined with the HTRF detection system. EC50 and IC50 values of control agonists or antagonists were calculated by non-linear regression analysis of the concentration-response curves generated with mean replicate values using Hill equation curve-fitting using the formula: equation (2).
Y=response, A=left asymptote of the curve, D=right asymptote of the curve, C=compound concentration, C50=EC50 or IC50, nH=slope factor. Agonistic activity of PCO371 at 1 or 10 μmol l^−1 was calculated as a per cent of the control agonist response; intracellular cAMP accumulation by PCO371 × 100/intracellular cAMP accumulation by the control agonist at the EC50 concentration. […]

[2] = system: OVX rats; assay: Bone histomorphometry of lumbar vertebra in OVX rats; type: in vivo, rat
Protocol: OVX was carried out in 32-week-old female Crl:CD (SD) rats (Charles River Laboratories). Twelve weeks after surgery, lumbar vertebral BMD (L3–L5) was measured in vivo by dual-energy X-ray absorptiometry (DXA) using a DCS-600EX-IIIR bone densitometer (Hitachi Aloka Medical), and the rats were divided into five groups, each with a similar mean value of BMD and body weight. Sample sizes were determined based on previous experiments with hPTHs and a published study with ibandronate and eldecalcitriol in our laboratories[42] (n=7–10). Then, OVX rats were treated once daily intravenously (vehicle or PCO371 at 3 or 10 mg kg^−1) or orally (vehicle or PCO371 at 30 mg kg^−1) or subcutaneously [vehicle or hPTH(1–34) at 0.9 nmol kg^−1] for 12 weeks. Ten to twelve OVX rats were assigned to each dose group. Nine rats were assigned to the sham-operated control group and were treated with vehicle for PCO371. Ten per cent DMSO (Wako Pure Chemical Industries)/10% Kolliphor EL (Sigma-Aldrich) in 10% hydroxypropyl-β-cyclodextrin (HPCD; Nihon Shokuhin Kako)/0.752% glycine (Wako Pure Chemical Industries) buffer was used as vehicle for PCO371, and phosphate-citrate buffer (pH 6.0) was used as vehicle for hPTH(1–34). To label bone-forming surfaces, tetracycline ([…], Nippon Zenyaku Kogyo) was subcutaneously injected on Day 78 and calcein (8 mg kg^−1, Dōjindo Laboratories) was subcutaneously injected on day 83. Under isoflurane anaesthesia, jugular vein blood was collected immediately before and at 1, 2, 6, 10 and 24 h after administration on day 82 to measure plasma concentration of PCO371 or on day 84 to measure serum Ca levels (o-CPC method, Wako Pure Chemical Industries). Urine was collected for 24 h from metabolic cages on days 84–85 to measure urinary collagen type 1 cross-linked C-telopeptide (CTX) by using the RatLaps ELISA System (Immunodiagnostic Systems). Under isoflurane anaesthesia, blood was collected on day 85 from the abdominal aorta to measure serum osteocalcin level by using the Rat Osteocalcin ELISA System (GE Healthcare). The lumbar spine and bilateral femurs were excised after 12 weeks of treatment. The first lumbar vertebra (L1), 3rd to 5th lumbar vertebrae (L3–L5), the right femur, and the right tibia were preserved in 70% ethanol to measure bone histomorphometry and BMD (DCS-600EX; Hitachi Aloka Medical). Measurement of bone histomorphometry was performed by the Ito Bone Histomorphometry Institute (Niigata, Japan). The second lumbar vertebra (L2) was wrapped in saline-soaked gauze and stored at −80 °C until measurement. Ultimate compressive strength (N) of the L2 vertebra was measured by using a mechanical testing machine (TK-252C; Muromachi Kikai).

[3] = i.v. 3 mg kg-1 once daily 12 weeks
[4] = i.v. 10 mg kg-1 once daily 12 weeks
[5] = p.o. 30 mg kg-1 once daily 12 weeks

## Cc1cc(N2C(=O)NC(=O)C2(C)C)cc(C)c1CCS(=O)(=O)N1CCC2(CC1)N=C(c1ccc(OC(F)(F)F)cc1)NC2=O [PCO371, 1-{3,5-dimethyl-4-[2-({4-oxo-2-[4-(trifluoromethoxy)phenyl]-1,3,8-triazaspiro[4.5]dec-1-en-8-yl}sulfonyl)ethyl]phenyl}-5,5-dimethylimidazolidine-2,4-dione]
[1]
  agonistic and antagonistic activities against 12 class B GPCRs: did not show agonistic or antagonistic activity; also recorded: did not exhibit activity
[2]; [3]
  BFR/BS (Bone formation rate/Bone surface): 0.144 ± 0.013 mm3 per mm2 per year
  BRs.R: 0.039 ± 0.005 mm2 per mm2 per year
  BV/TV (Bone volume/Tissue volume): 23.2 ± 1.9%
  ES/BS (Eroded surface/Bone surface): 27.6 ± 2.5%
  MAR (Mineral apposition rate): 1.84 ± 0.07 µm per day
  N.Ob/BS (Number of osteoblasts/Bone surface): 11.36 ± 0.71 N per mm
  N.Oc/BS (Number of osteoclasts/Bone surface): 2.55 ± 0.22 N per mm
  OV/TV (Osteoid volume/Tissue volume): 0.465 ± 0.040%
  ObS/BS (Osteoblast surface/Bone surface): 14.98 ± 1.07%
  OcS/BS (Osteoclast surface/Bone surface): 8.49 ± 0.79%
  Tb. N (Trabecular number): 3.07 ± 0.18 N per mm
  Tb. Sp (Trabecular separation): 264 ± 24 µm
  Tb. Th (Trabecular thickness): 75.1 ± 4.1 µm
[2]; [4]
  BFR/BS (Bone formation rate/Bone surface): 0.275 ± 0.022 mm3 per mm2 per year
  BRs.R: 0.071 ± 0.008 mm2 per mm2 per year
  BV/TV (Bone volume/Tissue volume): 20.1 ± 1.1%
  ES/BS (Eroded surface/Bone surface): 33.0 ± 1.6%
  MAR (Mineral apposition rate): 2.22 ± 0.06 µm per day
  N.Ob/BS (Number of osteoblasts/Bone surface): 16.09 ± 1.72 N per mm
  N.Oc/BS (Number of osteoclasts/Bone surface): 3.60 ± 0.20 N per mm
  OV/TV (Osteoid volume/Tissue volume): 0.690 ± 0.076%
  ObS/BS (Osteoblast surface/Bone surface): 24.64 ± 2.70%
  OcS/BS (Osteoclast surface/Bone surface): 11.69 ± 0.70%
  Tb. N (Trabecular number): 2.54 ± 0.11 N per mm
  Tb. Sp (Trabecular separation): 322 ± 18 µm
  Tb. Th (Trabecular thickness): 79.2 ± 2.7 µm
[2]; [5]
  BFR/BS (Bone formation rate/Bone surface): 0.285 ± 0.023 mm3 per mm2 per year
  BRs.R: 0.057 ± 0.006 mm2 per mm2 per year
  BV/TV (Bone volume/Tissue volume): 20.1 ± 1.4%
  ES/BS (Eroded surface/Bone surface): 39.7 ± 1.6%
  MAR (Mineral apposition rate): 2.28 ± 0.08 µm per day
  N.Ob/BS (Number of osteoblasts/Bone surface): 17.55 ± 1.43 N per mm
  N.Oc/BS (Number of osteoclasts/Bone surface): 4.30 ± 0.27 N per mm
  OV/TV (Osteoid volume/Tissue volume): 0.794 ± 0.085%
  ObS/BS (Osteoblast surface/Bone surface): 25.14 ± 2.09%
  OcS/BS (Osteoclast surface/Bone surface): 13.60 ± 0.69%
  Tb. N (Trabecular number): 2.64 ± 0.14 N per mm
  Tb. Sp (Trabecular separation): 315 ± 24 µm
  Tb. Th (Trabecular thickness): 76.0 ± 3.1 µm
